Common to all, as to format: cell-based
For series [1], the system named is uninfected Vero cells. Description: in vitro. Particulars: African green monkey. On the procedure: Potential cytotoxic effects of the compounds were evaluated in uninfected Vero cells. Cells were seeded at 4×10^4 cells/well in a 96-well plate in the presence of two-, three- or five-fold serial dilutions (ranging from 50 μg/mL-0.0038 μg/mL, 50 μg/mL-0.0076 μg/mL, and 50 μg/mL-0.00013 μg/mL, respectively) of compound and incubated for 4 to 7 days. Culture medium was discarded and 100 μL 3-(4,5-dimethylthiazol-2-yl)-5-(3-carboxymethoxyphenyl)-2-(4-sulfophenyl)-2H-tetrazolium/phenazinemethosulfate (MTS/PMS; Promega, Leiden, The Netherlands) in PBS was added to each well. Following a 2-hour incubation period at 37° C., the optical density was determined at 498 nm. Cytotoxic activity was calculated using the following formula: % cell viability=100×(ODCompound/ODCC), where ODcompound and ODCC correspond to the optical density at 498 nm of the uninfected cell cultures treated with compound and that of uninfected, untreated cell cultures, respectively. The 50% cytotoxic concentration (i.e., the concentration that reduces the total cell number with 50%; CC50) was calculated using linear interpolation (Tables 7 and 8).

Series [2] concerns DENV-2 strain 16681. Description: Tetravalent RT-qPCR assay Protocol A, serotype 2. As to conditions: Dengue virus, DENV2, 72 h, RT-qPCR serotype 2 16681, Vero cells, day 3. On the procedure: (§1) The antiviral activity of the compounds of the invention was tested against DENV-1 strain TC974#666 (NCPV), DENV-2 strain 16681, DENV-3 strain H87 (NCPV) and DENV-4 strains H241 (NCPV) and EDEN (SG/06K2270DK1/2005; GenBank accession number QG398256) in a RT-qPCR assay. Therefore, Vero cells were infected with either DENV-1, or -2, or -3, or -4 in the presence or absence of test compounds. At day 3 post-infection, the cells were lysed and cell lysates were used to prepare cDNA of both a viral target (the 3′UTR of DENV; table 2) and a cellular reference gene (β-actin, table 2). Subsequently, a duplex real time PCR was performed on a Lightcycler480 instrument. The generated Cp value is inversely proportional to the amount of RNA expression of these targets. Inhibition of DENV replication by a test compound result in a shift of Cp's for the 3′UTR gene. On the other hand, if a test compound is toxic to the cells, a similar effect on β-actin expression will be observed. The comparative ΔΔCp method is used to calculate EC50, which is based on the relative gene expression of the target gene (3′UTR) normalized with the cellular housekeeping gene (β-actin). In addition, CC50 values were determined based on the Cp values acquired for the housekeeping gene β-actin.
(§2) The culture medium consisted of minimal essential medium supplemented with 2% of heat-inactivated fetal calf serum, 0.04% gentamycin (50 mg/mL) and 2 mM of L-glutamine. Vero cells, obtained from ECACC, were suspended in culture medium and 75 μL/well was added in 96-well plates (10000 cells/well), which already contain the antiviral compounds. Typically, these plates contain a 4-fold serial dilution of 9 dilution steps of the test compound at 200 times the final concentration in 100% DMSO (500 nL; final concentration range: 25 μM-0.00038 μM). In addition, each plate contains wells which are assigned as virus controls (containing cells and virus in the absence of compound) and cell controls (containing cells in the absence of virus and compound). Once the cells were added in the plates, the plates were incubated in a fully humidified incubator (37° C., 5% CO2) until the next day. Then, DENV-1 strain TC974#666, DENV-2 strain 16681, DENV-3 strain H87 or DENV-4 strains H241 or EDEN were added. […] In parallel, 25 μL of culture medium was added to the cell controls. Next, the plates were incubated for 3 days in a fully humidified incubator (37° C., 5% CO2). After 3 days, the supernatant was removed from the wells and the cells were washed twice with ice-cold PBS (˜100 μL). The cell pellets within the 96-well plates were stored at −80° C. for at least 1 day. Next, RNA was extracted using the Cells-to-CT™ lysis kit, according to the manufacture's guideline (Applied Biosystems). The cell lysates can be stored at −80° C. or immediately used in the reverse transcription step. In preparation of the reverse transcription step, mix A (table 3A) was prepared and 7.57 μL/well was dispensed in a 96-well plate. After addition of 5 μL of the cell lysates, a five minute denaturation step at 75° C. was performed (table 3B). Afterwards, 7.43 μL of mix B was added (table 3C) and the reverse transcription step was initiated (table 3D) to generate cDNA.
(§3) Finally, a RT-qPCR mix was prepared, mix C (table 4A), dispensed in 96-well LightCycler qPCR plates to which 3 μL of cDNA was added and the qPCR was performed according to the conditions in table 4B on a LightCycler 480. Using the LightCycler software and an in-house LIMS system, dose response curves for each compound were calculated and the half maximal effective concentration (EC50) and the half maximal cytotoxic concentration (CO50) were determined (Tables 6-9).
In general terms: Real-time PCR tracks product formation cycle by cycle.

Series [3] in a line: in vitro. As to conditions: African green monkey. The procedure: as §1, §2, §3
The subject of series [4] is Vero cells. Description: in vitro. Particulars: African green monkey. The gist of the method: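 Cytotoxicity read on the same Vero plates after the eGFP read-out: resazurin added, incubated a further 5 h at 37° C, 5% CO2, fluorescence read at 530 nm excitation. CC50 is the concentration reducing resazurin conversion by 50% versus cell-control wells; SI = CC50/EC50.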

Series [5] has as its system DENV-3 strain H87. Description: Tetravalent RT-qPCR assay Protocol A, serotype 3. As to conditions: Dengue virus, DENV3, 72 h, RT-qPCR serotype 3 H87, Vero cells, day 3. The procedure:
as §1, §2, §3

The term CC50 denotes the concentration that lowers cell viability or growth by half. A word on the EC50: it is the midpoint of the concentration-response curve.

With `COc1cc(NC(C(=O)c2c[nH]c3c(F)cc(C)cc23)c2ccc(F)cc2OC)cc(OCCO)c1` (single isomer, unassigned) [Compound 12B, 2-(4-fluoro-2-methoxyphenyl)-1-(7-fluoro-5-methyl-1H-indol-3-yl)-2-((3-(2-hydroxyethoxy)-5-methoxyphenyl)amino)ethanone], the CC50 in series [1] worked out at 14 µM; in series [4], 5.5 µM. The EC50 is 0.0081 µM in series [2] and 0.27 µM in series [5]. This compound also registered a CC50 at 3 days in series [3] of 5 µM.
For `COc1cc(NC(C(=O)c2c[nH]c3c(C)cc(F)cc23)c2ccc(F)cc2OC)cc(OCCO)c1` (single isomer, unassigned) [Compound 9B, 2-(4-fluoro-2-methoxyphenyl)-1-(5-fluoro-7-methyl-1H-indol-3-yl)-2-((3-(2-hydroxyethoxy)-5-methoxyphenyl)amino)ethanone] the same measures were 14 µM, 5.5 µM, 0.0032 µM, 0.19 µM and 3.8 µM.
The matching figures for `COc1cc(NC(C(=O)c2c[nH]c3c(C)c(F)ccc23)c2ccc(F)cc2OC)cc(OCCO)c1` (single isomer, unassigned) [Compound 2B, 2-(4-fluoro-2-methoxyphenyl)-1-(6-fluoro-7-methyl-1H-indol-3-yl)-2-((3-(2-hydroxyethoxy)-5-methoxyphenyl)amino)ethanone]: 15 µM, 5.3 µM, 0.0023 µM, 0.11 µM and 3.6 µM.
The matching figures for `COc1cc(NC(C(=O)c2c[nH]c3c(C)c(OC)ccc23)c2ccc(F)cc2OC)cc(OCCO)c1` (single isomer, unassigned) [Compound 11A, 2-(4-fluoro-2-methoxyphenyl)-2-((3-(2-hydroxyethoxy)-5-methoxyphenyl)amino)-1-(6-methoxy-7-methyl-1H-indol-3-yl)ethanone]: 12 µM, 8.9 µM, 0.00084 µM, 0.085 µM and 6.3 µM.

The values are drawn from patent US10206902B2, “Mono- or di-substituted indoles as dengue viral replication inhibitors” (priority 2014, dated 2019).
